Test [1] concerns K562. The experiment in a line: Induction of apoptosis in human K562 cells assessed as DNA fragmentation at 7.8 uM after 12 to 24 hrs by TUNEL assay. The format is functional, cell-based.
The test system of test [2] is K562. Description: Induction of apoptosis in human K562 cells assessed as chromatin condensation at 7.8 uM after 12 to 24 hrs by TUNEL assay. The format is functional, cell-based.
Test [3] has as its system K562. Description: Induction of apoptosis in human K562 cells assessed as increase in effector caspases activity using Ac-DEVD-AMC as substrate after 3 to 24 hrs by fluorimetry. The format is functional, cell-based.
In test [4] the test system is K562. The experiment in a line: Induction of apoptosis in human K562 cells assessed as effector caspases activity using Ac-DEVD-AMC as substrate after 48 hrs by fluorimetry. The format is functional, cell-based.
Test [5] can be described thus: Cytotoxicity against human PMBC after 48 hrs by modified MTT assay. (Tetrazolium assays rely on reduction of a dye to a coloured formazan, in cell work by metabolically active cells.)
Test [6] has as its system K562. Description: Cytotoxicity against human K562 cells after 48 hrs by modified MTT assay. The format is functional, cell-based. Particulars: K562, 48 h.
Test [7] concerns K562. The experiment in a line: Ratio of IC50 for human PMBC to IC50 for human K562 cells.
Test [8] deals with K562. The experiment in a line: Cell cycle arrest in human K562 cells assessed as accumulation at G2/M phase at 7.8 uM after 6 hrs by propidium iodide staining-based FACS analysis. The format is functional. A general note: A flow cytometer gives signals particle by particle.
The test system of test [9] is K562. The experiment in a line: Induction of apoptosis in human K562 cells assessed as subdiploid peak at 7.8 uM after 12 to 24 hrs by propidium iodide staining-based FACS analysis. The format is functional, cell-based.
For test [10], the system named is K562. The experiment in a line: Induction of cell cycle arrest in human K562 cells assessed as complete arrest at G2/M phase at 0.25 uM after 12 hrs by propidium iodide staining-based FACS analysis. The format is functional.
In test [11] the test system is K562. The experiment in a line: Induction of apoptosis in human K562 cells assessed as chromatin condensation at 0.25 uM after 24 to 48 hrs by TUNEL assay. The format is functional, cell-based.
For test [12], the system named is K562. Description: Induction of apoptosis in human K562 cells assessed as appearance of apoptotic bodies at 0.25 uM after 24 to 48 hrs by TUNEL assay. The format is functional, cell-based.
The subject of test [13] is K562. Description: Induction of cell cycle arrest in human K562 cells assessed as accumulation at G2/M phase at 0.25 uM after 6 hrs by propidium iodide staining-based FACS analysis. The format is functional.

These results are taken from ChEMBL document CHEMBL1800021, “Antineoplastic activity of the thiazolo[5,4-b]quinoline derivative D3CLP in K-562 cells is mediated through effector caspases activation” (Eur J Med Chem, 2011).

Structures are written as SMILES. Calls of active or inactive are those of the source. The calls are words filed in the database; no cut-off is given here.

Broadly, the IC50 is the concentration at which inhibition is half-maximal. Higher therefore signals weaker potency in that assay.

As for `CCN(CC)CCCNc1nc2c(Nc3cccc(Cl)c3)c3ccccc3nc2s1`, the result in the test on K562 [1], in the test with K562 [2], in the test on K562 [3], in the test on K562 [8] and in the test on K562 [9] was Active. In the test on K562 [4], the result was inactive. Moreover, the IC50 in test [5] amounted to 28.7 µM; in the test with K562 [6] it was 7.82 µM. The “Ratio IC50” value with K562 [7] was 4.
`CC(=O)O[C@H]1C(=O)[C@@]2(C)[C@H]([C@H](OC(=O)c3ccccc3)[C@]3(O)C[C@H](OC(=O)[C@H](O)[C@@H](NC(=O)c4ccccc4)c4ccccc4)C(C)=C1C3(C)C)[C@]1(OC(C)=O)CO[C@@H]1C[C@@H]2O`: the outcome in the test with K562 [10], with K562 [11], in the test with K562 [12] and with K562 [13] was Active.
